{"source": "patent US20250177566A1", "about": "“USE OF CHEMICAL EPIGENETIC MODIFIERS TO MODULATE GENE EXPRESSION” (The University of North Carolina at Chapel Hill, priority 2022, published 2025)", "key": {"TRE3G-GFP reporter gene [1]": {"system": "TRE3G-GFP reporter gene", "assay": "TRE3G-GFP reporter gene activation in HCT116, dCas9 + MS2-FKBP*x2 (F36V) system, flow cytometry", "type": "cell-based, human", "design": "fold change, GFP: reference not given here", "conditions": "for fold change, GFP: FIG. 5C, NT gRNA, 48 hrs"}, "CXCR4 [2]": {"system": "CXCR4", "assay": "CXCR4 mRNA activation in HCT116 stably expressing dCas9 and MS2-FKBP*x2, qRT-PCR", "type": "cell-based, human", "summary_of_the_method": "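HCT116 cells stably expressing dCas9 and MS2-FKBP*x2 with CXCR4 gRNA were treated with CEMs (screen at 5 nM; 1–50 nM range). CXCR4 mRNA measured by one-step qRT-PCR after 48 h, or at 12–96 h in time course. Reversibility tested by washout after 24 h, optionally with 20 μM AP1867.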"}, "TRE3G-GFP reporter gene [3]": {"system": "TRE3G-GFP reporter gene", "conditions": "WT FKBP (MS2-FKBPx2), 48 hrs", "description": "HCT116 cells were transfected with TRE3G-GFP, dCas9, MS2-FKPB*x2, and TRE3G gRNA or NT gRNA. After 48 hrs of 10 nM SLF*-CEMa treatment, flow cytometry was performed and mean fluorescent value was collected. […] TRE3G-GFP, dCas9, MS2-FKBP*2, TRE3G gRNA or NT gRNA were transfected into HCT116 cells. The media was changed to media with 5 nM CEM207 together with 0 nM, 50 nM, 500 nM or 5000 nM of AP1867, respectively. After 48 hrs chemical exposure, flow cytometry was performed and the mean fluorescent value was measured in each group of cells. […] FIGS. 5D and 5E are dose curves of CEMa molecules activating the GFP reporter gene in HCT116 cells using WT FKBP and dCas9 as DNA binding module. HCT116 cells were transfected with dCas9, MS2-FKBPx2, TRE3G-GFP constructs, along with TRE3G gRNA or NT gRNA. Cells were treated with different concentrations of CEMa molecules for 48 hrs before flow cytometry was conducted. […] Error bars represent the standard deviation.\nTo better understand the activity of SLF*-CEMa in the WT FKBP-based GFP reporter assay, a similar dose-response assay was conducted in HCT116 cells transfected with dCas9 and MS2-FKBPx2 (FIGS. 1D and 1E).\nFlow cytometry. All flow cytometry experiments were performed with Attune Nxt as previously described. […] Significance was determined by Student's t-test."}, "CXCR4 [4]": {"system": "CXCR4", "assay": "CXCR4 mRNA activation in HCT116 stably expressing dCas9 and MS2-FKBPx2 (WT-FKBP), qRT-PCR", "type": "cell-based, human", "conditions": "FIG. 6, WT FKBP system, 48 hrs"}}, "note": "Where two headings read alike, the source gives them in different places.", "data": [{"smiles": "COc1ccc2c(c1)C(c1ccc(Cl)cc1)=N[C@@H](CC(=O)NCc1cn(CCOCCOCCOCCNC(=O)CCSCCC[C@@H]3/C=C(\\C)C[C@H](C)C[C@H](OC)[C@H]4O[C@@](O)(C(=O)C(=O)N5CCCC[C@H]5C(=O)O[C@H](/C(C)=C/[C@@H]5CC[C@@H](O)[C@H](OC)C5)[C@H](C)[C@@H](O)CC3=O)[C@H](C)C[C@@H]4OC)nn1)c1nnc(C)n1-2", "note": "[CEM87, reference compound]", "values": [{"measurement": "concentration at which significant GFP activation was first achieved", "setting": "TRE3G-GFP reporter gene [1]; FIG. 1E, FKBP* system, TRE3G gRNA, 48 hours", "result": 50, "unit": "nM"}, {"measurement": "fold change, GFP (Treated vs Non-Treated)", "setting": "TRE3G-GFP reporter gene [1]; FIG. 1E, TRE3G gRNA, 0.25 nM, 48 hours", "result": 1.1, "unit": "fold"}, {"measurement": "fold change, GFP (Treated vs Non-Treated)", "setting": "TRE3G-GFP reporter gene [1]; FIG. 1E, TRE3G gRNA, 0.5 nM, 48 hours", "result": 1.1, "unit": "fold"}, {"measurement": "fold change, GFP (Treated vs Non-Treated)", "setting": "TRE3G-GFP reporter gene [1]; FIG. 1E, TRE3G gRNA, 0.75 nM, 48 hours", "result": 1.1, "unit": "fold"}, {"measurement": "fold change, GFP (Treated vs Non-Treated)", "setting": "TRE3G-GFP reporter gene [1]; FIG. 1E, TRE3G gRNA, 1 nM, 48 hours", "result": 1.1, "unit": "fold"}, {"measurement": "fold change, GFP (Treated vs Non-Treated)", "setting": "TRE3G-GFP reporter gene [1]; FIG. 1E, TRE3G gRNA, 2.5 nM, 48 hours", "result": 1.2, "unit": "fold"}, {"measurement": "fold change, GFP (Treated vs Non-Treated)", "setting": "TRE3G-GFP reporter gene [1]; FIG. 1E, TRE3G gRNA, 5 nM, 48 hours", "result": 1.1, "unit": "fold"}, {"measurement": "fold change, GFP (Treated vs Non-Treated)", "setting": "TRE3G-GFP reporter gene [1]; FIG. 1E, TRE3G gRNA, 7.5 nM, 48 hours", "result": 1.1, "unit": "fold"}, {"measurement": "fold change, GFP (Treated vs Non-Treated)", "setting": "TRE3G-GFP reporter gene [1]; FIG. 1E, TRE3G gRNA, 10 nM, 48 hours", "result": 1.2, "unit": "fold"}, {"measurement": "fold change, GFP (Treated vs Non-Treated)", "setting": "TRE3G-GFP reporter gene [1]; FIG. 1E, TRE3G gRNA, 25 nM, 48 hours", "result": 1.6, "unit": "fold"}, {"measurement": "fold change, GFP (Treated vs Non-Treated)", "setting": "TRE3G-GFP reporter gene [1]; FIG. 1E, TRE3G gRNA, 50 nM, 48 hours", "result": 5.2, "unit": "fold"}, {"measurement": "fold change, GFP (Treated vs Non-Treated)", "setting": "TRE3G-GFP reporter gene [1]; FIG. 1E, TRE3G gRNA, 75 nM, 48 hours", "result": 7.8, "unit": "fold"}, {"measurement": "fold change, GFP (Treated vs Non-Treated)", "setting": "TRE3G-GFP reporter gene [1]; FIG. 1E, TRE3G gRNA, 100 nM, 48 hours", "result": 9.7, "unit": "fold"}, {"measurement": "fold change, GFP", "setting": "TRE3G-GFP reporter gene [1]; 0.25 nM", "result": 1.1, "unit": "fold"}, {"measurement": "fold change, GFP", "setting": "TRE3G-GFP reporter gene [1]; 0.5 nM", "result": 1.1, "unit": "fold"}, {"measurement": "fold change, GFP", "setting": "TRE3G-GFP reporter gene [1]; 0.75 nM", "result": 1.0, "unit": "fold"}, {"measurement": "fold change, GFP", "setting": "TRE3G-GFP reporter gene [1]; 1 nM", "result": 1.0, "unit": "fold"}, {"measurement": "fold change, GFP", "setting": "TRE3G-GFP reporter gene [1]; 2.5 nM", "result": 1.1, "unit": "fold"}, {"measurement": "fold change, GFP", "setting": "TRE3G-GFP reporter gene [1]; 5 nM", "result": 1.0, "unit": "fold"}, {"measurement": "fold change, GFP", "setting": "TRE3G-GFP reporter gene [1]; 7.5 nM", "result": 1.0, "unit": "fold"}, {"measurement": "fold change, GFP", "setting": "TRE3G-GFP reporter gene [1]; 10 nM", "result": 1.0, "unit": "fold"}, {"measurement": "fold change, GFP", "setting": "TRE3G-GFP reporter gene [1]; 25 nM", "result": 1.0, "unit": "fold"}, {"measurement": "fold change, GFP", "setting": "TRE3G-GFP reporter gene [1]; 50 nM", "result": 1.0, "unit": "fold"}, {"measurement": "fold change, GFP", "setting": "TRE3G-GFP reporter gene [1]; 75 nM", "result": 1.0, "unit": "fold"}, {"measurement": "fold change, GFP", "setting": "TRE3G-GFP reporter gene [1]; 100 nM", "result": 1.0, "unit": "fold"}, {"measurement": "fold change, CXCR4 mRNA (Treated vs Non-Treated)", "setting": "CXCR4 [2]; FIG. 2C, 5 nM, 48 hrs", "result": 1.5, "unit": "fold"}, {"measurement": "fold change, CXCR4 mRNA (CEM Treated vs Non-Treated)", "setting": "CXCR4 [2]; FIG. 2D, CXCR4 gRNA, 1 nM, 48 hrs", "result": 1.16, "unit": "fold"}, {"measurement": "fold change, CXCR4 mRNA (CEM Treated vs Non-Treated)", "setting": "CXCR4 [2]; FIG. 2D, CXCR4 gRNA, 5 nM, 48 hrs", "result": 1.03, "unit": "fold"}, {"measurement": "fold change, CXCR4 mRNA (CEM Treated vs Non-Treated)", "setting": "CXCR4 [2]; FIG. 2D, CXCR4 gRNA, 25 nM, 48 hrs", "result": 1.19, "unit": "fold"}, {"measurement": "fold change, CXCR4 mRNA (CEM Treated vs Non-Treated)", "setting": "CXCR4 [2]; FIG. 2D, CXCR4 gRNA, 50 nM, 48 hrs", "result": 1.53, "unit": "fold"}, {"measurement": "fold change, CXCR4 mRNA (CEM Treated vs Non-Treated)", "setting": "CXCR4 [2]; FIG. 2D, NT gRNA, 1 nM, 48 hrs", "result": 0.85, "unit": "fold"}, {"measurement": "fold change, CXCR4 mRNA (CEM Treated vs Non-Treated)", "setting": "CXCR4 [2]; FIG. 2D, NT gRNA, 5 nM, 48 hrs", "result": 0.81, "unit": "fold"}, {"measurement": "fold change, CXCR4 mRNA (CEM Treated vs Non-Treated)", "setting": "CXCR4 [2]; FIG. 2D, NT gRNA, 25 nM, 48 hrs", "result": 0.91, "unit": "fold"}, {"measurement": "fold change, CXCR4 mRNA (CEM Treated vs Non-Treated)", "setting": "CXCR4 [2]; FIG. 2D, NT gRNA, 50 nM, 48 hrs", "result": 1.18, "unit": "fold"}, {"measurement": "activation of CXCR4 mRNA expression", "setting": "CXCR4 [2]; FIG. 2D, all concentrations tested (1-50 nM), 48 hours", "result": "no significant activation"}, {"measurement": "fold change, GFP (Treated vs Non-Treated)", "setting": "TRE3G-GFP reporter gene [3]; FIG. 5D, 10 nM", "result": 22.5, "unit": "fold"}, {"measurement": "fold change, GFP (Treated vs Non-Treated)", "setting": "TRE3G-GFP reporter gene [3]; FIG. 5D, 25 nM", "result": 23.1, "unit": "fold"}, {"measurement": "fold change, GFP (Treated vs Non-Treated)", "setting": "TRE3G-GFP reporter gene [3]; FIG. 5D, 50 nM", "result": 22.1, "unit": "fold"}, {"measurement": "fold change, GFP (Treated vs Non-Treated)", "setting": "TRE3G-GFP reporter gene [3]; FIG. 5D, 100 nM", "result": 22.0, "unit": "fold"}, {"measurement": "fold change, GFP (Treated vs Non-Treated)", "setting": "TRE3G-GFP reporter gene [3]; FIG. 5D, 200 nM", "result": 18.7, "unit": "fold"}, {"measurement": "fold change, GFP (Treated vs Non-Treated)", "setting": "TRE3G-GFP reporter gene [3]; FIG. 5D, 400 nM", "result": 18.3, "unit": "fold"}, {"measurement": "fold change, GFP (Treated vs Non-Treated)", "setting": "TRE3G-GFP reporter gene [3]; FIG. 5E, 10 nM", "result": 1.0, "unit": "fold"}, {"measurement": "fold change, GFP (Treated vs Non-Treated)", "setting": "TRE3G-GFP reporter gene [3]; FIG. 5E, 25 nM", "result": 1.1, "unit": "fold"}, {"measurement": "fold change, GFP (Treated vs Non-Treated)", "setting": "TRE3G-GFP reporter gene [3]; FIG. 5E, 50 nM", "result": 1.1, "unit": "fold"}, {"measurement": "fold change, GFP (Treated vs Non-Treated)", "setting": "TRE3G-GFP reporter gene [3]; FIG. 5E, 100 nM", "result": 1.2, "unit": "fold"}, {"measurement": "fold change, GFP (Treated vs Non-Treated)", "setting": "TRE3G-GFP reporter gene [3]; FIG. 5E, 200 nM", "result": 1.1, "unit": "fold"}, {"measurement": "fold change, GFP (Treated vs Non-Treated)", "setting": "TRE3G-GFP reporter gene [3]; FIG. 5E, 400 nM", "result": 1.2, "unit": "fold"}, {"measurement": "fold change, CXCR4 mRNA (CXCR4 gRNA vs NT gRNA)", "setting": "CXCR4 [4]; 25 nM", "result": 21.5, "unit": "fold"}, {"measurement": "fold change, CXCR4 mRNA (CXCR4 gRNA vs NT gRNA)", "setting": "CXCR4 [4]; 50 nM", "result": 16.5, "unit": "fold"}, {"measurement": "fold change, CXCR4 mRNA (CXCR4 gRNA vs NT gRNA)", "setting": "CXCR4 [4]; 200 nM", "result": 19.0, "unit": "fold"}]}]}
